Reference: patent US8163709B2, “TAK1-D mediated induction of cell death in human cancer cells by specific sequence short double-stranded RNAS” (Board of Regents of the University of Texas System, priority 2008, dated 2012)
Entries after “also recorded” stand apart in the source; their conditions may differ.

Experiments:
[1] = tested on: normal human skin fibroblasts; experiment: Crystal Violet staining of normal human skin fibroblasts; type: cell-based; conditions: up to 20 nM, 48 h
Description: In order to obtain preliminary data describing the response of normal tissue cells to dsRNA mediated Tak1-D activation normal human fibroblasts as well as human bronchial epithelial cells (HBEC) were plated into 12-well multiwell plates, treated with siRNA si5 or si6 in different concentrations and stained with Crystal Violet 48 h later. […] […].

TAK1-A = experiment: Autophosphorylation of the other (long) Tak1 splicing variants in H460 cells; type: cell-based, human; conditions: siRNA 20 nM
Text: In contrast only the long form (TAK1-A) is able to activate the NFκB pathway through phosphorylation of IKKα/β.

cdc25B = experiment: Nuclear cdc25B level in NCI-H460 cells; type: cell-based, human
Text: (§1) P38 MAPK as well as SPK/JNK have a large number of downstream targets. Amongst these, the phosphorylation of the cell cycle control phosphatase cdc25 (Bulavin et al., 2001; Goss et al., 2003) are of particular interest, as these phosphorylations have the potential to transduce an immediate and direct effect of TAK1-D activation to the cell cycle. […] In contrast, both cdc25A and cdc25B were found in the nucleus and therefore capable of cell cycle control. […] The occurrence of this shifted form of cdc25A is indicative of phosphorylation and inactivation of cdc25A (Zhao et al., 2002). The amount of cdc25B in the nucleus decreases with kinetics similar to the phosphorylation of cdc25A, indicative for a phosphorylation dependent translocation and proteolytic digestion of cdc25B (Cans et al., 1999). Therefore, it can be concluded that activation of TAK1-D in NCI-H460 cells leads to an inactivation of cdc25A and cdc25B through p38 MAPK and SAPK/JNK mediated phosphorylation and proteolytic destruction.

p38 MAPK = p38 MAPK cascade activation in HCC2279 cells (Western blot); type: cell-based, human
Text: A possible application for the above mentioned findings in cancer therapy requires data on the effects of dsRNA mediated activation of Tak1-D in other tumors and in normal tissues. To test whether dsRNA mediated cell killing also occurs in other tumor cell lines, the NSCLC cell line HCC2279 was chosen. This cell line originated from an adenocarcinoma and was initially described by Wistuba et al. (1999).

H460 cells = experiment: Apoptosis in H460 cells (caspase 3 cleavage, PARP cleavage, nuclear morphology); type: cell-based, human
Text: Cell cycle arrest triggers programmed cell death in many tumor cell lines.
As cell cycle arrest is incompatible with survival in many tumor cell lines the cellular response of H460 cells to the treatment with dsRNA si5 was investigated.
Survival assay and apoptosis scoring.

cdc25A = cdc25A phosphorylation in nuclei of NCI-H460 cells; type: cell-based, human; conditions: 2 h
Text: as §1

si5: 21-mer siRNA against TLK1 mRNA: GGCUUUUGACCUUUAUGAAtt (SEQ ID NO: 2) / ttCCGAAAACUGGAAAUACUU (SEQ ID NO: 3) (sense GGCUUUUGACCUUUAUGAATT; antisense TTCCGAAAACUGGAAAUACUU; chemistry not given here; one strand is listed 3' to 5')
growth inhibitory or cytotoxic effect [1]: no growth inhibitory or cytotoxic effect could be observed; also recorded: no cytotoxicity or growth delay
activating autophosphorylation of the other three splicing variants of Tak1 (TAK1-A): does not induce activating autophosphorylation
amount of cdc25B in the nucleus (cdc25B): decreases
activation of p38 MAPK (p38 MAPK): activate p38 MAPK
cellular apoptotic response with inactivated Tak1-D catalytic activity (H460 cells; H460, adenoviral K63W, 48 h after siRNA): significantly reduced
nuclear morphology, HOECHST 33342 staining (H460 cells; H460 cells, 48 h): typical apoptotic chromatin condensation and fragmentation
time until PARP cleavage (H460 cells; H460 cells, Western blot): ≤ 24 h
caspase 3 cleavage (H460 cells; NCI-H460, 24 h after treatment): cells from the G1 and the S phase of the cell cycle show caspase 3 cleavage
fraction of G1 and S phase cells staining positive for cleaved caspase 3 (H460 cells; NCI-H460, 48 h, compared with 24 h): higher
phosphorylation of nuclear cdc25A (intensity of the upper band) (cdc25A): increases in intensity within 2 h; also recorded: increased phosphorylation as early as 2 h
